Reference: PubChem BioAssay (NCI)
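Five compound concentrations were applied to cells in 96-well plates for 48 hours; endpoints were derived by simple linear interpolation of the resulting dose-response curve. GI50 = concentration required for 50% inhibition of growth. At the TGI there is no net growth.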

Legend:
Test in all cases: NCI-60 cell line screen, 48 h
K-562 leukemia = tested on: K-562 leukemia
MDA-MB-435 = tested on: MDA-MB-435
CCRF-CEM leukemia = tested on: CCRF-CEM leukemia
MOLT-4 leukemia = tested on: MOLT-4 leukemia
KM12 colon = tested on: KM12 colon
U251 CNS = tested on: U251 CNS
DU-145 prostate = tested on: DU-145 prostate
TK-10 renal = tested on: TK-10 renal
MDA-MB-231 breast = tested on: MDA-MB-231 breast
SNB-19 CNS = tested on: SNB-19 CNS
EKVX NSCLC = tested on: EKVX NSCLC
HCT-15 colon = tested on: HCT-15 colon
UACC-62 melanoma = tested on: UACC-62 melanoma
BT-549 breast = tested on: BT-549 breast
HOP-92 NSCLC = tested on: HOP-92 NSCLC
RPMI-8226 leukemia = tested on: RPMI-8226 leukemia
786-0 renal = tested on: 786-0 renal
SF-268 CNS = tested on: SF-268 CNS
OVCAR-5 ovarian = tested on: OVCAR-5 ovarian
SK-OV-3 ovarian = tested on: SK-OV-3 ovarian
SR leukemia = tested on: SR leukemia
A498 renal = tested on: A498 renal
HOP-62 NSCLC = tested on: HOP-62 NSCLC
MCF7 breast = tested on: MCF7 breast
HCT-116 colon = tested on: HCT-116 colon
NCI-H226 lung = tested on: NCI-H226 lung
NCI-H23 lung = tested on: NCI-H23 lung
A549 NSCLC = tested on: A549 NSCLC
NCI-H460 lung = tested on: NCI-H460 lung
SK-MEL-5 melanoma = tested on: SK-MEL-5 melanoma
IGROV1 ovarian = tested on: IGROV1 ovarian
SN12C renal = tested on: SN12C renal
COLO 205 colon = tested on: COLO 205 colon
ACHN renal = tested on: ACHN renal
MALME-3M melanoma = tested on: MALME-3M melanoma
CAKI-1 renal = tested on: CAKI-1 renal
PC-3 prostate = tested on: PC-3 prostate
SNB-75 CNS = tested on: SNB-75 CNS
SK-MEL-2 melanoma = tested on: SK-MEL-2 melanoma
OVCAR-3 ovarian = tested on: OVCAR-3 ovarian
M14 melanoma = tested on: M14 melanoma
UACC-257 melanoma = tested on: UACC-257 melanoma
UO-31 renal = tested on: UO-31 renal
HT29 colon = tested on: HT29 colon
SW-620 colon = tested on: SW-620 colon
NCI/ADR-RES ovarian = tested on: NCI/ADR-RES ovarian
OVCAR-4 ovarian = tested on: OVCAR-4 ovarian
SF-539 CNS = tested on: SF-539 CNS
OVCAR-8 ovarian = tested on: OVCAR-8 ovarian
SF-295 CNS = tested on: SF-295 CNS
HS 578T breast = tested on: HS 578T breast
HCC-2998 colon = tested on: HCC-2998 colon
T-47D breast = tested on: T-47D breast
NCI-H522 lung = tested on: NCI-H522 lung
SK-MEL-28 melanoma = tested on: SK-MEL-28 melanoma
LOX IMVI melanoma = tested on: LOX IMVI melanoma
HL-60(TB) leukemia = tested on: HL-60(TB) leukemia

For `COc1ccc([C@H]2[C@H](O)C(=O)N2c2cc(OC)c(OC)c(OC)c2)cc1`, the GI50 (K-562 leukemia) was < 10 nM, the TGI (K-562 leukemia) was > 100000 nM and the GI50 (MDA-MB-435) was < 10 nM. For the same compound, the TGI (MDA-MB-435) was < 10 nM, the GI50 (CCRF-CEM leukemia) was < 10 nM and the TGI (CCRF-CEM leukemia) was > 100000 nM. The GI50 (MOLT-4 leukemia) was < 16.8 nM, the TGI (MOLT-4 leukemia) was > 100000 nM and the GI50 (KM12 colon) was < 10 nM. For the same compound, the TGI (KM12 colon) was > 100000 nM, the GI50 (U251 CNS) was < 10 nM and the TGI (U251 CNS) was > 100000 nM. The GI50 (DU-145 prostate) was < 10.9 nM, the GI50 (TK-10 renal) was > 100000 nM and the TGI (TK-10 renal) was > 100000 nM. The GI50 (MDA-MB-231 breast) was < 16.2 nM, the TGI (MDA-MB-231 breast) was > 100000 nM and the GI50 (SNB-19 CNS) was < 26.7 nM. The TGI (SNB-19 CNS) was > 100000 nM, the TGI (EKVX NSCLC) was > 100000 nM and the GI50 (HCT-15 colon) was < 10.3 nM. The TGI (HCT-15 colon) was > 100000 nM, the GI50 (UACC-62 melanoma) was < 10 nM and the TGI (UACC-62 melanoma) was > 100000 nM. For the same compound, the GI50 (BT-549 breast) was < 13.7 nM, the TGI (BT-549 breast) was 288 nM and the TGI (HOP-92 NSCLC) was > 100000 nM. For the same compound, the GI50 (RPMI-8226 leukemia) was < 10 nM, the TGI (RPMI-8226 leukemia) was > 100000 nM and the GI50 (786-0 renal) was < 17.8 nM. The TGI (786-0 renal) was > 100000 nM, the GI50 (SF-268 CNS) was < 20.7 nM and the TGI (SF-268 CNS) was > 100000 nM. The GI50 (OVCAR-5 ovarian) was < 17.9 nM, the TGI (OVCAR-5 ovarian) was > 100000 nM and the GI50 (SK-OV-3 ovarian) was < 12.1 nM. The TGI (SK-OV-3 ovarian) was > 100000 nM, the GI50 (SR leukemia) was < 10 nM and the GI50 (A498 renal) was > 100000 nM. The TGI (A498 renal) was > 100000 nM, the GI50 (HOP-62 NSCLC) was < 19.9 nM and the TGI (HOP-62 NSCLC) was > 100000 nM. The GI50 (MCF7 breast) was < 10 nM, the TGI (MCF7 breast) was > 100000 nM and the GI50 (HCT-116 colon) was < 10 nM. The TGI (HCT-116 colon) was > 100000 nM, the GI50 (NCI-H226 lung) was < 10 nM and the TGI (NCI-H226 lung) was > 100000 nM. The GI50 (NCI-H23 lung) was 11 nM, the TGI (NCI-H23 lung) was > 100000 nM and the GI50 (A549 NSCLC) was < 13.2 nM. The TGI (A549 NSCLC) was > 100000 nM, the GI50 (NCI-H460 lung) was < 13.3 nM and the TGI (NCI-H460 lung) was > 34300 nM. For the same compound, the GI50 (SK-MEL-5 melanoma) was < 10 nM, the TGI (SK-MEL-5 melanoma) was 38.7 nM and the GI50 (IGROV1 ovarian) was < 10.8 nM. The TGI (IGROV1 ovarian) was > 100000 nM, the GI50 (SN12C renal) was < 15 nM and the TGI (SN12C renal) was > 100000 nM. For the same compound, the GI50 (COLO 205 colon) was < 13.2 nM, the TGI (COLO 205 colon) was < 20.9 nM and the GI50 (ACHN renal) was < 10 nM. For the same compound, the TGI (ACHN renal) was > 100000 nM, the TGI (MALME-3M melanoma) was > 100000 nM and the GI50 (CAKI-1 renal) was < 10 nM. For the same compound, the TGI (CAKI-1 renal) was > 100000 nM, the GI50 (PC-3 prostate) was < 10 nM and the TGI (PC-3 prostate) was > 100000 nM. For the same compound, the GI50 (SNB-75 CNS) was < 10 nM, the TGI (SNB-75 CNS) was > 100000 nM and the GI50 (SK-MEL-2 melanoma) was 30.9 nM. The TGI (SK-MEL-2 melanoma) was > 100000 nM, the GI50 (OVCAR-3 ovarian) was < 10 nM and the TGI (OVCAR-3 ovarian) was 120 nM. For the same compound, the GI50 (M14 melanoma) was < 12.7 nM, the TGI (M14 melanoma) was > 100000 nM and the GI50 (UACC-257 melanoma) was 1870 nM. The TGI (UACC-257 melanoma) was > 100000 nM, the GI50 (UO-31 renal) was < 14 nM and the TGI (UO-31 renal) was > 100000 nM. For the same compound, the GI50 (HT29 colon) was < 10 nM, the GI50 (SW-620 colon) was < 10.9 nM and the TGI (SW-620 colon) was > 100000 nM. The GI50 (NCI/ADR-RES ovarian) was < 13.9 nM, the TGI (NCI/ADR-RES ovarian) was 3840 nM and the GI50 (OVCAR-4 ovarian) was 1750 nM. The TGI (OVCAR-4 ovarian) was > 100000 nM, the GI50 (SF-539 CNS) was < 10 nM and the TGI (SF-539 CNS) was < 10 nM. The GI50 (OVCAR-8 ovarian) was < 10 nM, the TGI (OVCAR-8 ovarian) was < 10 nM and the GI50 (SF-295 CNS) was < 10 nM. The TGI (SF-295 CNS) was > 100000 nM, the GI50 (HS 578T breast) was < 11.1 nM and the TGI (HS 578T breast) was > 100000 nM. For the same compound, the GI50 (HCC-2998 colon) was < 15.8 nM, the TGI (HCC-2998 colon) was > 100000 nM and the GI50 (T-47D breast) was > 100000 nM. For the same compound, the TGI (T-47D breast) was > 100000 nM, the GI50 (NCI-H522 lung) was < 10 nM and the TGI (NCI-H522 lung) was < 10 nM. The GI50 (SK-MEL-28 melanoma) was 1700 nM, the TGI (SK-MEL-28 melanoma) was > 100000 nM and the GI50 (LOX IMVI melanoma) was < 10 nM. For the same compound, the TGI (LOX IMVI melanoma) was > 100000 nM, the GI50 (HL-60(TB) leukemia) was < 10 nM and the TGI (HL-60(TB) leukemia) was < 17.2 nM.
